Our source for the mutagenic call values is PubChem BioAssay AID1259407 (Chemical Carcinogenesis Research Information System (CCRIS), 2018).

Calls of active or inactive are those of the source. The rule behind the calls is not given here.

This series deals with CCRIS mutagenicity, Ames/micronucleus/aberration tests. Nature of the series: CCRIS mutagenicity studies.

As to `Cc1c2ccncc2c(C)c2c1[nH]c1ccccc12`, the mutagenic call is “active; positive” (Test System: AMES SALMONELLA TYPHIMURIUM, Strain/Indicator: TA98, Metabolic Activation: RAT, LIVER, S-9, AROCLOR 1254, Method: STANDARD PLATE); “active; positive” (Test System: AMES SALMONELLA TYPHIMURIUM, Strain/Indicator: TA102, Metabolic Activation: NONE, Method: STANDARD PLATE); “inactive; negative” (Test System: CHINESE HAMSTER V-79, Strain/Indicator: V-79 (HPRT)/6-THIOGUANINE, Metabolic Activation: NONE); “inactive; negative” (Test System: E. COLI, Strain/Indicator: WP2 TM9, Metabolic Activation: NONE, Method: STANDARD PLATE); “inactive; negative” (Test System: MOUSE LYMPHOMA, Strain/Indicator: L5178Y (HPRT)/6-THIOGUANINE, Metabolic Activation: NONE, Method: FLUCTUATION TEST); “active; positive” (Test System: MOUSE LYMPHOMA, Strain/Indicator: L5178Y (TK+/TK-), Metabolic Activation: NONE, Method: FLUCTUATION TEST). Also, the mutagenic call runs as follows: (Test System: MOUSE LYMPHOMA, Strain/Indicator: L5178Y (TK+/TK-), Metabolic Activation: NONE, Method: SUSPENSION/PLATE) “active; positive”; (Test System: Mouse lymphoma, Strain/Indicator: L5178Y (tk+/tk-), Metabolic Activation: None, Method: Suspension/plate) “active; positive”; (Test System: Mouse lymphoma, Strain/Indicator: L5178Y (tk+/tk-), Metabolic Activation: Rat, Liver, S-9, Aroclor 1254, Method: Suspension/plate) “active; positive”.
